IC50 data for 21 compounds are collected here from ChEMBL document CHEMBL1125992, “Evaluation of bouvardin, deoxybouvardin, and RA-I - RA-VII partial structures: reassignment of the pharmacophore” (Bioorg Med Chem Lett, 1991).

By IC50 is commonly meant the concentration needed to halve the response being measured. Low values mean inhibition by little substance, high ones a need for much substance.

≈ marks a conversion by molar mass, not a printed value. Starred links: 1 amine or outer side, 2 acyl side, 3 side chain; linkers in the order of their positions; H or OH if unused. Non-standard residues stand in square brackets, D forms with d. Residues, ends and D or L forms follow the SMILES beside them. ξ: configuration not given here. X1 = CN(CCc1ccc(Oc2cccc(CCC(=O)[*:2])c2)cc1)[*:1]; NMeY = CN[C@@H](Cc1ccc(O)cc1)C(=O)O; ξA = CC(N)C(=O)O Some results are limits rather than exact numbers.

The assay deals with L1210. The assay can be described thus: In vitro cytotoxicity against L1210 (murine leukemia) cells. It counts as functional, cell-based. Conditions: Mus musculus.
Turning to `COc1ccc2cc1Oc1ccc(cc1)CCC(=O)N(C)CC2`, the IC50 was over 100 µg/mL.

Regarding `COC(=O)[C@@H]1Cc2ccc(OC)c(c2)Oc2ccc(cc2)CCC(=O)N1`, the IC50 is over 100 µg/mL. `COc1ccc(C[C@H]2C(=O)N[C@@H](C)C(=O)N(C)[C@@H](Cc3ccc(O)cc3)C(=O)N(C)[C@@H](Cc3ccc(O)cc3)C(=O)N[C@H](C)C(=O)N[C@@H](C)C(=O)N2C)cc1` came in with an IC50 of over 100 µg/mL. The same measure for `COc1ccc(C[C@H]2C(=O)N[C@@H](C)C(=O)N[C@H](C)C(=O)N[C@@H](C)C(=O)N2C)cc1`: 20 µg/mL (≈ 49.4 µM); for `CN[C@H]1Cc2ccc(O)c(c2)Oc2ccc(cc2)C[C@@H](C(=O)O)N(C)C(=O)[C@H](C)NC(=O)[C@H](Cc2ccc(OC)cc2)N(C)C(=O)[C@H](C)NC(=O)[C@@H](C)NC1=O`: 10 µg/mL (≈ 12.9 µM). With `COc1ccc(C[C@H]2C(=O)N[C@@H](C)C(=O)N(C)[C@H]3Cc4ccc(cc4)Oc4cc(ccc4OC)C[C@@H](C(=O)N[C@H](C)C(=O)N[C@@H](C)C(=O)N2C)N(C)C3=O)cc1`, the IC50 was 0.002 µg/mL (≈ 0.00259 µM). The same measure for `COc1ccc(C[C@H]2C(=O)N[C@@H](C)C(=O)N(C)Cc3ccccc3CC(=O)N[C@H](C)C(=O)N[C@@H](C)C(=O)N2C)cc1`: 25 µg/mL (≈ 44.2 µM); for `COc1ccc(C[C@H]2C(=O)N[C@@H](C)C(=O)N(C)[C@H]3C(=O)N(C)[C@H]3C(=O)NC(C)C(=O)N[C@@H](C)C(=O)N2C)cc1` (stereo partly specified): 50 µg/mL (≈ 91.8 µM). In the case of `COC(=O)[C@@H]1Cc2ccc(OC)c(c2)Oc2ccc(cc2)C[C@H](N(C)C(=O)OCc2ccccc2)C(=O)N1` it was 0.05 µg/mL (≈ 0.0964 µM); in that of `COC(=O)[C@@H]1Cc2ccc(OC)c(c2)Oc2ccc(cc2)C[C@H](N(C)C(=O)OCc2ccccc2)C(=O)N1C`, 0.04 µg/mL (≈ 0.0751 µM); in that of `COC(=O)[C@@H]1Cc2ccc(OC)c(c2)Oc2ccc(cc2)C[C@H](N(C)C(=O)OC(C)(C)C)C(=O)N1C`, 0.03 µg/mL (≈ 0.0602 µM).

In the case of `COc1ccc(C[C@H]2C(=O)N[C@@H](C)C(=O)N(C)[C@H]3Cc4ccc(cc4)Oc4cc(ccc4OC)C[C@H](NC3=O)C(=O)N[C@H](C)C(=O)N[C@@H](C)C(=O)N2C)cc1`, the IC50 is 0.001 µg/mL (≈ 0.00132 µM). The same measure for `COc1ccc(C[C@H]2C(=O)N[C@@H](C)C(=O)N(C)CCc3ccc(cc3)Oc3cccc(c3)CCC(=O)NC(C)C(=O)N[C@@H](C)C(=O)N2C)cc1` (stereo partly specified) (cyclo(A[NMeY](Me)A[X1][ξA])): 20 µg/mL (≈ 29.2 µM). The same measure for `COC(=O)[C@@H]1Cc2ccc(cc2)Oc2cc(ccc2OC(=O)c2ccccc2)C[C@H](N(C)C(=O)OCc2ccccc2)C(=O)NC(C)C(=O)N[C@@H](C)C(=O)N(C)[C@@H](Cc2ccc(OC)cc2)C(=O)N[C@@H](C)C(=O)N1C` (stereo partly specified): 10 µg/mL (≈ 9.74 µM).

`COc1ccc(C[C@H]2C(=O)N[C@@H](C)C(=O)N(C)CC(=O)N(C)CC(=O)N[C@H](C)C(=O)N[C@@H](C)C(=O)N2C)cc1` displayed a concentration for half-maximal inhibition (IC50) of over 100 µg/mL. `COc1ccc2cc1Oc1ccc(cc1)CCC(=O)NCC2` came in with an IC50 of over 100 µg/mL. Turning to `COc1ccc(C[C@H]2C(=O)N[C@@H](C)C(=O)N(C)[C@H]3Cc4ccc(cc4)Oc4cc(ccc4O)C[C@@H](C(=O)N[C@H](C)C(=O)N[C@@H](C)C(=O)N2C)N(C)C3=O)cc1`, the IC50 was determined as 0.002 µg/mL (≈ 0.00264 µM). Consider `CN1CCc2cccc(c2)Oc2ccc(cc2)CCC1=O`, for which the IC50 is over 100 µg/mL. As for `O=C1CCc2ccc(cc2)Oc2cccc(c2)CCN1`, the IC50 was over 100 µg/mL. In the case of `COC(=O)[C@@H]1Cc2ccc(O)c(c2)Oc2ccc(cc2)CCC(=O)N1` it was over 100 µg/mL.

`COC(=O)[C@@H]1Cc2ccc(OC)c(c2)Oc2ccc(cc2)C[C@H](N(C)C(=O)OC(C)(C)C)C(=O)N1` registered an IC50 of 0.06 µg/mL (≈ 0.124 µM).
